Data published in US11117900B2 (Vertex Pharmaceuticals Incorporated, priority 2012, dated 2021).

These compounds were tested on HCT116 colorectal cancer cells (assay: Cisplatin sensitization assay (96 h MTS cell viability)). Conditions: Cisplatin sensitization value.
Type: cell-based
Method in brief: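 HCT116 cells were dosed simultaneously with compound and cisplatin as a full matrix of 2-fold serial dilutions from 10 μM top final concentration. Incubation was 96 h at 37° C., 5% CO2, followed by 1 h with MTS reagent for the viability read-out. Sensitization values were binned into +++, ++ and + categories.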
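Also: compound concentration needed to lower the IC50 of Cisplatin alone by a set fold.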

Compound	Cisplatin Sensitization Assay
CC1CN(c2ccncc2NC(=O)c2c(N)nn3cc(Cl)cnc23)CCN1C (centres unmarked) [I-N-54, 2-amino-6-chloro-N-(4-(3,4-dimethylpiperazin-1-yl)pyridin-3-yl)pyrazolo[1,5-a]pyrimidine-3-carboxamide]	+++ (Compounds with a Cisplatin sensitization value of <0.02 μM are marked with “+++.”)
CN1CCOC2(CCN(c3ccncc3NC(=O)c3c(N)nn4cc(F)cnc34)CC2)C1 [I-N-183, 2-amino-6-fluoro-N-(4-(4-methyl-1-oxa-4,9-diazaspiro[5.5]undecan-9-yl)pyridin-3-yl)pyrazolo[1,5-a]pyrimidine-3-carboxamide]	+++ (Compounds with a Cisplatin sensitization value of <0.02 μM are marked with “+++.”)
Nc1nn2cc(Cl)cnc2c1C(=O)Nc1cnccc1N1CCCC(N)C1 (centres unmarked) [I-N-55, 2-amino-N-(4-(3-aminopiperidin-1-yl)pyridin-3-yl)-6-chloropyrazolo[1,5-a]pyrimidine-3-carboxamide]	++ (Compounds with a Cisplatin sensitization value >0.02 μM but <0.2 μM are marked with “++.”)
CN1CCN(c2c(NC(=O)c3c(N)nn4cc(F)cnc34)cncc2C2CC2)CC1 [I-N-5, 2-amino-N-(5-cyclopropyl-4-(4-methylpiperazin-1-yl)pyridin-3-yl)-6-fluoropyrazolo[1,5-a]pyrimidine-3-carboxamide]	++ (Compounds with a Cisplatin sensitization value >0.02 μM but <0.2 μM are marked with “++.”)
N#CCc1cnc2c(C(=O)Nc3cnccc3OC3CCOCC3)c(N)nn2c1 [I-O-30, 2-amino-6-(cyanomethyl)-N-(4-((tetrahydro-2H-pyran-4-yl)oxy)pyridin-3-yl)pyrazolo[1,5-a]pyrimidine-3-carboxamide]	+++ (Compounds with a Cisplatin sensitization value of <0.02 μM are marked with “+++.”)
CN1CCN(c2cc(Cl)ncc2NC(=O)c2c(N)nn3cc(Cl)cnc23)CC1 [I-N-52, 2-amino-6-chloro-N-(6-chloro-4-(4-methylpiperazin-1-yl)pyridin-3-yl)pyrazolo[1,5-a]pyrimidine-3-carboxamide]	++ (Compounds with a Cisplatin sensitization value >0.02 μM but <0.2 μM are marked with “++.”)
Nc1nn2cc(F)cnc2c1C(=O)Nc1cnccc1N1CCN(S(=O)(=O)C2COC2)CC1 [I-N-195, 2-amino-6-fluoro-N-(4-(4-(oxetan-3-ylsulfonyl)piperazin-1-yl)pyridin-3-yl)pyrazolo[1,5-a]pyrimidine-3-carboxamide]	+++ (Compounds with a Cisplatin sensitization value of <0.02 μM are marked with “+++.”)
Cc1cc(C(=O)N2CCN(C)CC2)ccc1-c1ccncc1NC(=O)c1c(N)nn2cc(F)cnc12 [I-C-45, 2-amino-6-fluoro-N-(4-(2-methyl-4-(4-methylpiperazine-1-carbonyl)phenyl)pyridin-3-yl)pyrazolo[1,5-a]pyrimidine-3-carboxamide]	+++ (Compounds with a Cisplatin sensitization value of <0.02 μM are marked with “+++.”)
CN1CC[C@@H](OC2CCN(c3c(F)cncc3NC(=O)c3c(N)nn4cc(F)cnc34)CC2)C1 [I-N-132, (R)-2-amino-6-fluoro-N-(5-fluoro-4-(4-((1-methylpyrrolidin-3-yl)oxy)piperidin-1-yl)pyridin-3-yl)pyrazolo[1,5-a]pyrimidine-3-carboxamide]	+++ (Compounds with a Cisplatin sensitization value of <0.02 μM are marked with “+++.”)
Nc1nn2cc(F)cnc2c1C(=O)Nc1cncc(F)c1N1CCN(S(=O)(=O)C2CC2)CC1 [I-N-159, 2-amino-N-(4-(4-(cyclopropylsulfonyl)piperazin-1-yl)-5-fluoropyridin-3-yl)-6-fluoropyrazolo[1,5-a]pyrimidine-3-carboxamide]	+++ (Compounds with a Cisplatin sensitization value of <0.02 μM are marked with “+++.”)
Nc1nn2cc(F)cnc2c1C(=O)Nc1cnccc1-c1ccc(C(=O)N2CCC(N3CCCC3)CC2)nc1 [I-C-53, 2-amino-6-fluoro-N-(6-(4-(pyrrolidin-1-yl)piperidine-1-carbonyl)-[3,4′-bipyridin]-3′-yl)pyrazolo[1,5-a]pyrimidine-3-carboxamide]	+++ (Compounds with a Cisplatin sensitization value of <0.02 μM are marked with “+++.”)
CN1CCN(C(=O)[C@H]2CC[C@@H](Oc3ccncc3NC(=O)c3c(N)nn4cc(F)cnc34)CC2)CC1 [I-O-19, 2-amino-6-fluoro-N-(4-(((1s,4s)-4-(4-methylpiperazine-1-carbonyl)cyclohexyl)oxy)pyridin-3-yl)pyrazolo[1,5-a]pyrimidine-3-carboxamide]	+++ (Compounds with a Cisplatin sensitization value of <0.02 μM are marked with “+++.”)
Nc1nn2cc(F)cnc2c1C(=O)Nc1cncc(F)c1N1CCN(CC(=O)N2CCC2)CC1 [I-N-228, 2-amino-N-(4-(4-(2-(azetidin-1-yl)-2-oxoethyl)piperazin-1-yl)-5-fluoropyridin-3-yl)-6-fluoropyrazolo[1,5-a]pyrimidine-3-carboxamide]	+++ (Compounds with a Cisplatin sensitization value of <0.02 μM are marked with “+++.”)
CN1CCN(C(=O)C2CCN(c3c(F)cncc3NC(=O)c3c(N)nn4cc(F)cnc34)CC2)CC1(C)C [I-G-15, 2-amino-6-fluoro-N-(5-fluoro-4-(4-(3,3,4-trimethylpiperazine-1-carbonyl)piperidin-1-yl)pyridin-3-yl)pyrazolo[1,5-a]pyrimidine-3-carboxamide]	+++ (Compounds with a Cisplatin sensitization value of <0.02 μM are marked with “+++.”)
Nc1nn2cc(F)cnc2c1C(=O)Nc1cnccc1-c1ccc(S(=O)(=O)N2CCC2)cc1 [I-C-64, 2-amino-N-(4-(4-(azetidin-1-ylsulfonyl)phenyl)pyridin-3-yl)-6-fluoropyrazolo[1,5-a]pyrimidine-3-carboxamide]	+++ (Compounds with a Cisplatin sensitization value of <0.02 μM are marked with “+++.”)
Nc1nn2cc(F)cnc2c1C(=O)Nc1cncc(F)c1N1CCC(S(=O)(=O)N2CCN3CCC2CC3)CC1 [I-N-273, N-(4-(4-(1,4-diazabicyclo[3.2.2]nonan-4-ylsulfonyl)piperidin-1-yl)-5-fluoropyridin-3-yl)-2-amino-6-fluoropyrazolo[1,5-a]pyrimidine-3-carboxamide]	+++ (Compounds with a Cisplatin sensitization value of <0.02 μM are marked with “+++.”)
Cn1cncc1-c1ccncc1NC(=O)c1c(N)nn2cc(F)cnc12 [I-C-56, 2-amino-6-fluoro-N-(4-(1-methyl-1H-imidazol-5-yl)pyridin-3-yl)pyrazolo[1,5-a]pyrimidine-3-carboxamide]	+++ (Compounds with a Cisplatin sensitization value of <0.02 μM are marked with “+++.”)
Nc1nn2cc(Cl)cnc2c1C(=O)Nc1cnccc1OCCO [I-O-66, 2-amino-6-chloro-N-(4-(2-hydroxyethoxy)pyridin-3-yl)pyrazolo[1,5-a]pyrimidine-3-carboxamide]	+ (Compounds with a Cisplatin sensitization value >0.2 μM but <5 μM are marked with “+.”)
CN1CCN(C(=O)N2CCN(c3c(F)cncc3NC(=O)c3c(N)nn4cc(F)cnc34)CC2)CC1 [I-N-140, 2-amino-6-fluoro-N-(5-fluoro-4-(4-(4-methylpiperazine-1-carbonyl)piperazin-1-yl)pyridin-3-yl)pyrazolo[1,5-a]pyrimidine-3-carboxamide]	+++ (Compounds with a Cisplatin sensitization value of <0.02 μM are marked with “+++.”)
CN(C)CCOc1cc(Cl)ncc1NC(=O)c1c(N)nn2cc(Cl)cnc12 [I-O-68, 2-amino-6-chloro-N-(6-chloro-4-(2-(dimethylamino)ethoxy)pyridin-3-yl)pyrazolo[1,5-a]pyrimidine-3-carboxamide]	++ (Compounds with a Cisplatin sensitization value >0.02 μM but <0.2 μM are marked with “++.”)
CN1CCN(c2c(Cl)cncc2NC(=O)c2c(N)nn3cc(F)cnc23)CC1 [I-N-85, 2-amino-N-(5-chloro-4-(4-methylpiperazin-1-yl)pyridin-3-yl)-6-fluoropyrazolo[1,5-a]pyrimidine-3-carboxamide]	++ (Compounds with a Cisplatin sensitization value >0.02 μM but <0.2 μM are marked with “++.”)
N#CC1CN(C(=O)C2CCN(c3c(F)cncc3NC(=O)c3c(N)nn4cc(F)cnc34)CC2)C1 [I-G-76, 2-amino-N-(4-(4-(3-cyanoazetidine-1-carbonyl)piperidin-1-yl)-5-fluoropyridin-3-yl)-6-fluoropyrazolo[1,5-a]pyrimidine-3-carboxamide]	+++ (Compounds with a Cisplatin sensitization value of <0.02 μM are marked with “+++.”)
N#CCc1cnc2c(C(=O)Nc3cnccc3OC3CCC3)c(N)nn2c1 [I-O-36, 2-amino-6-(cyanomethyl)-N-(4-cyclobutoxypyridin-3-yl)pyrazolo[1,5-a]pyrimidine-3-carboxamide]	+++ (Compounds with a Cisplatin sensitization value of <0.02 μM are marked with “+++.”)
Nc1nn2cc(Cl)cnc2c1C(=O)Nc1cnccc1N1CCC(N2CCC3(COC3)C2)CC1 [I-N-99, N-(4-(4-(2-oxa-6-azaspiro[3.4]octan-6-yl)piperidin-1-yl)pyridin-3-yl)-2-amino-6-chloropyrazolo[1,5-a]pyrimidine-3-carboxamide]	+++ (Compounds with a Cisplatin sensitization value of <0.02 μM are marked with “+++.”)
Nc1nn2cc(Cl)cnc2c1C(=O)Nc1cnccc1N1CCNC(C(F)(F)F)C1 (centres unmarked) [I-N-70, 2-amino-6-chloro-N-(4-(3-(trifluoromethyl)piperazin-1-yl)pyridin-3-yl)pyrazolo[1,5-a]pyrimidine-3-carboxamide]	++ (Compounds with a Cisplatin sensitization value >0.02 μM but <0.2 μM are marked with “++.”)
Nc1nn2cc(F)cnc2c1C(=O)Nc1cnccc1-c1cccnc1 [I-C-15, N-([3,4′-bipyridin]-3′-yl)-2-amino-6-fluoropyrazolo[1,5-a]pyrimidine-3-carboxamide]	++ (Compounds with a Cisplatin sensitization value >0.02 μM but <0.2 μM are marked with “++.”)
